Laboratory results as given in EP0029697A1, “Pharmaceutical compositions for the treatment of neoplastic diseases and process therefor” (Gosalvez, Mario Gosalvez, priority 1979, dated 1981).

How the values were obtained:
[1] = test system: Hela cells; test: Restoration of contact inhibition in colonies of Hela cells; type: cell-based, human
Procedure: Hela cells, a type of cell derived from human uterine tumor, were seeded in Eagle culture flasks at the concentration of 50 cells/cm^2. The cells were allowed to develop colonies during a period of 10 days with two changes of the medium on the second and sixth day. A tissue culture (minimum essential medium of Eagle with 10% calf serum) comprising amino acids, vitamins and glucose was employed.
2-Amino-2-thiazoline, obtained by treatment of the hydrochloride with a molar equivalent of sodium hydroxide, was added to the medium at varying concentrations on both the second day and the sixth day, after the initiation of the culture. A total of 3 flasks containing the cultured colonies were used for each concentration of 2-amino-2-thiazoline employed. On the tenth day, the cells were fixed in neutral formol and were stained with hematoxyline. A total of 500 colonies of the same size in each flask were counted at random and the percentage of colonies with contact inhibition (planar morphology) or without contact inhibition (pyrimidal or acuminated morphology) were noted.

[2] = Toxicity to humans; type: in vivo; conditions: doses up to at least 100 mg/kg
Procedure: 2-amino-2-thiazoline and 2-amino-2-thiazoline hydrochloride are also non-toxic to humans in doses up to at least 100 mg/kg. Therefore, the dosage administered can vary over a wide range, without concern that undesirable side-effects will result from large dosages.

[3] = test system: Leukemia 1210; test: Effect on mouse tumors: survival time, leukemia 1210; type: in vivo; conditions: mice inoculated with leukemia 1210
Procedure: (§1) The effect of 2-amino-2-thiazoline on mouse tumors (le'ukemia 1210 and Lewis Lung carcinoma) was also tested. […] However, it is knwon that the cells associated with those tumors are extremely undifferentiated from normal cells so as to have lost all or nearly all of the cytoskeletal system of contractile microfilaments. Such cells would be expected to be insensitive to agents which induce reverse transformation. Leukemia 1210 and Lewis Lung carcinoma are transplantable tumors and, upon transplantation, they have lost the tissue specific membrane receptors which are the target of 2-amino-2-thiazoline.

[4] = test system: Lewis Lung carcinoma; test: Effect on mouse tumors: survival time, Lewis Lung carcinoma; type: in vivo; conditions: mice inoculated with Lewis Lung carcinoma
Procedure: as §1

[5] = test system: bladder tumor receptor; test: Preliminary study of biochemical affinity with tumor membrane receptors (bladder); type: binding
From the text: (§2) The preceding description is but illustrative of the practice of the invention and it is to be understood that other expedients may be employed by those skilled in the art without departure from the scope of the invention. Data on human tumors have been provided for bladder cancer because in a preliminary study of the biochemical affinity of 2-amino-2-thiazoline with tumor membrane receptors, the affinity with the bladder tumor receptor was very high. […] Therefore, it is claimed that 2-amino-2-thiazoline is an antitumor agent for mammalian cancer acting without toxicity by inducing reverse transformation.

[6] = test system: other tumor receptors of different tissue origin; test: Preliminary study of biochemical affinity with tumor membrane receptors (other tissues); type: binding
From the text: as §2

[7] = test system: tumors of various origins; test: Preliminary clinical trial in tumors of various origins; type: in vivo
From the text: as §2

[8] = test system: advanced metastastic bladder cancer; test: Clinical trial in patients with advanced metastatic bladder cancer; type: in vivo, humans
Procedure: Clinical trials with 2-amino-2-thiazoline hydrochloride have been conducted on 9 patients suffering from advanced metastastic bladder cancer, not amenable to any other treatment.
Only patients with measurable and progressing bladder tumors and lung metastases the growth rate of which was measured weekly in X-ray plates for serveral weeks before beginning the treatment were admitted to the trial. The development of the bladder tumors was measured by cytos- copy after biopsy.
Each of the patients were intravenously administered 2-amino-2-thiazoline-hydrochloride, as an aqueous solution (25-75 mg/ml) at the dose of 1.5 mg/kg of body weight on a daily basis per 5 days, every three weeks (the first 5 patients), and at dose of 3 mg/kg daily per 5 days every three weeks (the following 4 patients).

[9] = 1 μMol, added on day 2 and day 6, read on day 10
[10] = 2 μMol, added on day 2 and day 6, read on day 10
[11] = 5 μMol, added on day 2 and day 6, read on day 10
[12] = 10 μMol, added on day 2 and day 6, read on day 10
[13] = 20 μMol, added on day 2 and day 6, read on day 10
[14] = patient 1, bladder carcinoma, lesion lung and bladder, total dose 2.5 gr, i.v. 1.5 mg/kg daily per 5 days every three weeks
[15] = patient 2, bladder carcinoma, lesion lung and bladder, total dose 3.2 gr, i.v. 1.5 mg/kg daily per 5 days every three weeks
[16] = patient 3, bladder carcinoma, lesion lung and bladder, total dose 2.8 gr, i.v. 1.5 mg/kg daily per 5 days every three weeks
[17] = patient 4, bladder carcinoma, lesion bladder, total dose 3.7 gr, i.v. 1.5 mg/kg daily per 5 days every three weeks
[18] = patient 5, bladder carcinoma, lesion lung and bladder, total dose 4.9 gr, i.v. 1.5 mg/kg daily per 5 days every three weeks
[19] = patient 6, bladder carcinoma, lesion bladder, total dose 12 gr, i.v. 3 mg/kg daily per 5 days every three weeks
[20] = patient 7, bladder carcinoma, lesion lung and bladder, total dose 9.6 gr, i.v. 3 mg/kg daily per 5 days every three weeks
[21] = patient 8, bladder carcinoma, lesion lung and bladder, total dose 11.8 gr, i.v. 3 mg/kg daily per 5 days every three weeks
[22] = patient 9, bladder carcinoma, lesion lung and bladder, total dose 10.8 gr, i.v. 3 mg/kg daily per 5 days every three weeks

With `NC1=NCCS1` [2-Amino-2-thiazoline] the “Colonies without contact inhibition” value [1, 9] was 42%, the “Total number of colonies” value [1, 9] was 100% and the “Colonies with contact inhibition” value ([1]; 1 μMol, added on day 2 and day 6, read on day 10, 500 colonies per flask) was 58%. The “Colonies with contact inhibition” value [1, 10] was 59%, the “Colonies without contact inhibition” value [1, 10] was 41% and the “Total number of colonies” value [1, 10] was 100%. For the same compound, the “Colonies with contact inhibition” value [1, 11] was 75%, the “Colonies without contact inhibition” value [1, 11] was 25% and the “Total number of colonies” value [1, 11] was 85%. The “Colonies with contact inhibition” value [1, 12] was 86%, the “Colonies without contact inhibition” value [1, 12] was 14% and the “Total number of colonies” value [1, 12] was 75%. For the same compound, the “Colonies with contact inhibition” value ([1]; 20 μMol (maximum dosage), added on day 2 and day 6, read on day 10) was 100%, the “Colonies without contact inhibition” value [1, 13] was 0% and the “Total number of colonies” value [1, 13] was 45%. The Toxicity [2] was “non-toxic”, the “increasing the survival time of the mice” value [3] was “completely inactive” and the “increasing the survival time of the mice” value [4] was “completely inactive”. For the same compound, the “biochemical affinity with tumor membrane receptors” value [5] was “very high”, the “affinity for other tumor receptors” value [6] was “shown affinity” and the clinical response [7] was “stabilization and minor remissions”.
In the case of `Cl.NC1=NCCS1` [2-Amino-2-thiazoline·HCl, 2-amino-2-thiazoline hydrochloride], the Toxicity ([8]; all 9 patients, i.v. 1.5 or 3 mg/kg daily per 5 days every three weeks) was “None of the patients showed any toxicity”, the “objective responses (mor than 50% reduction of tumor size)” value ([8]; number of responders out of the 9 cases, combined area of lung metastasis and size of the cystoscopic lesion) was 4 and the Response [8, 14] was “complete remission”. For the same compound, the Toxicity [8, 14] was “none”, the Response [8, 15] was “partial remission” and the Toxicity [8, 15] was “none”. For the same compound, the Response [8, 16] was “complete remission”, the Toxicity [8, 16] was “none” and the Response [8, 17] was “stabilization”. The Toxicity [8, 17] was “none”, the Response [8, 18] was “stabilization” and the Toxicity [8, 18] was “none”. The Response [8, 19] was “complete remission”, the Toxicity [8, 19] was “none” and the Response [8, 20] was “complete remission”. For the same compound, the Toxicity [8, 20] was “none”, the Response [8, 21] was “stabilization” and the Toxicity [8, 21] was “none”. For the same compound, the Response [8, 22] was “stabilization”, the Toxicity [8, 22] was “none” and the Toxicity [2] was “non-toxic”.
